Measurements: PMC5738391, “Three classes of ligands each bind to distinct sites on the orphan G protein-coupled receptor GPR84” (Scientific Reports, 2017)

Columns and labels:
[1] = set-up: method as in PMID 17164373; details: cited from earlier work
[2] = tested on: GPR84-Gαi2 fusion protein; experiment: [35S]GTPγS binding, membranes expressing GPR84-Gαi2 fusion protein; type: biochemical, human; details: wild type GPR84-Gαi2 fusion, pertussis toxin 24 h
Source text: The only previous study[3] designed to explore the mode of binding of ligands to GPR84 employed a fusion protein[31],[32] in which the G protein Gαi1 was linked in-frame to the C-terminal tail of GPR84. […] These studies indicate that following pertussis toxin treatment of cells expressing the GPR84-Cys^352Ile Gαi2 fusion protein all agonist-induced binding of [^35S]GTPγS reflects incorporation of nucleotide into the receptor-linked G protein α subunit.
(§1) Membranes were generated from Flp-In T-REx HEK293 cells treated with 100 ng/mL doxycycline to induce expression of the receptor construct of interest. Cells were washed with ice-cold phosphate-buffered saline, removed from dishes by scraping and centrifuged at 3000 rpm for 5 min at 4 °C. Pellets were resuspended in TE buffer (10 mM Tris-HCl, 0.1 mM EDTA; pH 7.5) containing a protease inhibitor mixture (Roche Applied Science, West Sussex, UK) and homogenized with a 5 ml hand-held homogenizer. This material was centrifuged at 1500 rpm for 5 min at 4 °C and the supernatant was further centrifuged at 50000 rpm for 45 min at 4 °C. The resulting pellet was resuspended in TE buffer and protein content was assessed using a BCA protein assay kit (Pierce, Fisher Scientific, Loughborough, UK).
Initially, 5 μg of generated membrane protein was pre-incubated for 15 min at 25 °C in assay buffer (20 mM HEPES, 5 mM MgCl2; 160 mM NaCl; 1 μM GDP; 0.05% fatty acid-free bovine serum albumin; pH 7.5) containing the indicated ligand concentrations. […] The reaction was then initiated with addition of [^35S]GTPγS (50 nCi per tube), and the reaction was terminated after 45 minutes incubation at 30 °C by rapid filtration through GF/C glass filters using a 24-well Brandel cell harvester (Alpha Biotech, Glasgow, UK). Unbound radioligand was removed from filters by three washes with ice-cold phosphate buffered saline (pH 7.4) and filters were dried for 2–3 h at room temperature. Dried filters were added to 3 mL of Ultima Gold^TM XR (PerkinElmer Life Sciences, Beaconsfield, UK) and [^35S]GTPγS binding was determined by liquid scintillation spectrometry.

[3] = target: GPR84-Cys^352Ile Gαi2 fusion protein (Homo sapiens, UniProt Q9NQS5); experiment: [35S]GTPγS binding, membranes expressing pertussis toxin-resistant GPR84-Cys352Ile Gαi2 fusion; operational model of allosteric modulation; type: biochemical
Experimental: The only previous study[3] designed to explore the mode of binding of ligands to GPR84 employed a fusion protein[31],[32] in which the G protein Gαi1 was linked in-frame to the C-terminal tail of GPR84.
as §1
The reaction was then initiated with addition of [^35S]GTPγS (50 nCi per tube), and the reaction was terminated after 45 minutes incubation at 30 °C by rapid filtration through GF/C glass filters using a 24-well Brandel cell harvester (Alpha Biotech, Glasgow, UK). […] Dried filters were added to 3 mL of Ultima Gold^TM XR (PerkinElmer Life Sciences, Beaconsfield, UK) and [^35S]GTPγS binding was determined by liquid scintillation spectrometry.
To quantify the extent of allosteric interaction between pairs of ligands, data were analysed using an operational model of allosteric modulation described previously. The general version of this model can be depicted by the following equation: E=Em(τA[A](KB+αβ[B])+τB[B]KA)^n/([A]KB+KAKB+[B]KA+α[A][B])^n+(τA[A](KB+αβ[B])+τB[B]KA)^n where, E is the pharmacological effect, [A] and [B] are the orthosteric and allosteric compound concentrations at equilibrium, respectively; KA and KB are the equilibrium dissociation constants of the orthosteric and allosteric ligands respectively, denoting the binding affinities of the two ligands to the receptor; α is the binding cooperativity factor denoting the magnitude and direction of the allosteric effect on binding affinity of the orthosteric agonist to the receptor, β is the activation cooperativity factor representing the measure of the allosteric effect on orthosteric efficacy. τA and τB represent the intrinsic activity of the orthosteric and allosteric ligand, respectively. Em is the maximal possible system response and n denotes the slope factor of the transducer function. In case of global fitting of the allosterism data through this equation, Em and n values were always constrained and other parameters (KA, KB,τA, τB, α, β) were estimated.

[4] = target: T1, human GPR84 (FLAG-hGPR84-eYFP) (Homo sapiens, UniProt Q9NQS5); experiment: HTRF-based cAMP inhibition assay in Flp-In T-REx 293 cells expressing FLAG-hGPR84-eYFP; type: cell-based; details: 100 μM of each MCFA
T1 construct: expressed in transfected cells
Experimental: For the assay cells were plated at 5000 cells/well in low-volume 384-well plates. The ability of agonists to inhibit 1 μM forskolin-induced cAMP production was assessed following a co-incubation for 30 min with agonist compounds.

[5] = oral dosing to women of up to 1000 mg of indole-3-carbinol
[6] = agonist DIM, modulator compound-1

Sequence of GPR84-Cys^352Ile Gαi2 fusion protein (Q9NQS5 whole entry, the tested form may be a part): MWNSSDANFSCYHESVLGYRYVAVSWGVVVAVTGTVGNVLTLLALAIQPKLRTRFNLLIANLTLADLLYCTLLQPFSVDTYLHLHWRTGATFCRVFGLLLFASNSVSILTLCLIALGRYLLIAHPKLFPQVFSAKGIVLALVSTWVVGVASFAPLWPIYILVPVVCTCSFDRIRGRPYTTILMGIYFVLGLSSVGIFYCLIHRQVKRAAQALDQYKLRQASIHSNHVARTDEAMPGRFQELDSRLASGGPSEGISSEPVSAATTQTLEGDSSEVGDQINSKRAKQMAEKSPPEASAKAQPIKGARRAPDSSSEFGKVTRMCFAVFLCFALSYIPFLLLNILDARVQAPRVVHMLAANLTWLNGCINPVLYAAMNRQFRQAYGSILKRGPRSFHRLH
Sequence of GPR84-Cys^352Ile Gαi2 fusion protein (P04899 2-355 C352I, further chain): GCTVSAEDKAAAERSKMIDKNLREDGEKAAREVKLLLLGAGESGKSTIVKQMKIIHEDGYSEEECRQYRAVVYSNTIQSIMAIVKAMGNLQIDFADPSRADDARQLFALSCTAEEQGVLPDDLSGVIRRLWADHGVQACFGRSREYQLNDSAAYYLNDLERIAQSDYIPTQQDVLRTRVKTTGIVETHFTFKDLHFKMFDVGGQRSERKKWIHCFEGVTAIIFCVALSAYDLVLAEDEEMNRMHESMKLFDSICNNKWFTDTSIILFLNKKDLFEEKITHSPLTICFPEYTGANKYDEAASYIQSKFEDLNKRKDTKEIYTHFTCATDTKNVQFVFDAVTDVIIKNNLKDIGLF
T1 sequence (Q9NQS5 whole entry): as the sequence (Q9NQS5 whole entry, the tested form may be a part) above

Structure (SMILES)	clearance from plasma ([1]; after oral indole-3-carbinol)	peak plasma level of DIM [1, 5]	time to peak plasma level of DIM [1, 5] [h]	response after pertussis toxin pre-treatment [2]	increase in potency of DIM to activate GPR84 at high levels of C10 or other MCFAs versus absence of C10 [3] [fold]	logα ([3]; agonist DIM, modulator C-10)	logβ ([3]; agonist DIM, modulator C-10)	logα [3, 6]	logβ [3, 6]	logα ([3]; agonist DIM, modulator embelin)	logβ ([3]; agonist DIM, modulator embelin)	allosteric effect on potency of C10 ([3]; co-addition of increasing concentrations of DIM, pertussis toxin-treated cells)	effect on measured potency of compound-1 and embelin ([3]; increasing concentrations of DIM)	response after pertussis toxin treatment ([3]; pertussis toxin-resistant fusion, pertussis toxin 24 h)	capacity to inhibit forskolin-amplified levels of cAMP, compared among MCFAs of chain length C9-C14 [4]	co-addition with compound-1 or embelin, effect on potency [3]	logα ([3]; agonist C-10, modulator DIM)	logβ ([3]; agonist C-10, modulator DIM)
c1ccc2c(Cc3c[nH]c4ccccc34)c[nH]c2c1 [DIM, 3,-3′-diindolylmethane]	rapidly cleared	500–600 ng/ml and approximately 2 μM	≤ 2	all but eliminated	~20	1.3 ± 0.1	1.2 ± 0.05	1.8 ± 0.08	1.14 ± 0.03	1.12 ± 0.04	1.0 ± 0.03	positive allosteric modulator	enhancing the measured potency	unaffected	–	–	–	–
CCCCCCCCCC(=O)O [C10, decanoic acid]	–	–	–	–	–	–	–	–	–	–	–	–	–	–	produced the largest effect	did not result in modulation of the potency	1.4 ± 0.1	0.4 ± 0.07
